Measured values taken from US9688676B2, “Tyrosine kinase inhibitors” (PRINCIPIA BIOPHARMA INC., priority 2015, dated 2017).

target: BTK (Homo sapiens (Human), UniProt Q06187); test: BTK enzymatic activity assay (Caliper-based kinase assay); format: biochemical; conditions: human recombinant BTK 0.5 nM, ATP 16 μM, 3 h room temperature
Experimental: A Caliper-based kinase assay (Caliper Life Sciences, Hopkinton, Mass.) was used to measure inhibition of BTK kinase activity of a compound of the present disclosure. […] The reaction was then terminated with EDTA, final concentration 20 mM and the phosphorylated reaction product was quantified on a Caliper Desktop Profiler (Caliper LabChip 3000). […] This value is presented as the IC50.

Sequence of BTK (Q06187 whole entry): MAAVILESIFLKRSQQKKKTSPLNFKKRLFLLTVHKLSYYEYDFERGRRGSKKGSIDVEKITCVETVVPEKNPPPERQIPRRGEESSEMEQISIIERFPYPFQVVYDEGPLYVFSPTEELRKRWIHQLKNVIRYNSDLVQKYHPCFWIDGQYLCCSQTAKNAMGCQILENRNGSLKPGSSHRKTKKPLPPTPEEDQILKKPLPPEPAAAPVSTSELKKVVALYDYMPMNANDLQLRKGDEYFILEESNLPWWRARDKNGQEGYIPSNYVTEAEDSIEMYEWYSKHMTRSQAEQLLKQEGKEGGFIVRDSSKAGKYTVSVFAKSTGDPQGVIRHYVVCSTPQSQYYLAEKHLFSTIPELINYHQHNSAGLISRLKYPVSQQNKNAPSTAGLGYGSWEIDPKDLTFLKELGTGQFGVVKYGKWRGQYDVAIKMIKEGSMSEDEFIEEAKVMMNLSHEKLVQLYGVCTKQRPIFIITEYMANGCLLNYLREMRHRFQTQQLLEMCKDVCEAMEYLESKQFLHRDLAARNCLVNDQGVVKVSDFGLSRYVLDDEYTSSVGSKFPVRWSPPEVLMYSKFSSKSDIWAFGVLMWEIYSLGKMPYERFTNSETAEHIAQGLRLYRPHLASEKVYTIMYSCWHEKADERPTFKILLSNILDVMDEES

IC50 | Compound
5.9 nM | COC[C@H]1CCCN1C(C)(C)C=C(C#N)C(=O)N1CCC[C@@H](n2c(=O)n(-c3ccc(Oc4ccccc4)cc3)c3c(N)nccc32)C1 [Compound 62, 2-((R)-3-(4-amino-2-oxo-3-(4-phenoxyphenyl)-2,3-dihydro-1H-imidazo[4,5-c]pyridin-1-yl)piperidine-1-carbonyl)-4-((R)-2-(methoxymethyl)pyrrolidin-1-yl)-4-methylpent-2-enenitrile]
61.4 nM | CC(C)(N)C=C(C#N)C(=O)N1CCC[C@@H](n2c(=O)n(-c3ccc(Oc4ccccc4)cc3)c3c(N)nccc32)C1 [Compound 57, (R)-4-amino-2-(3-(4-amino-2-oxo-3-(4-phenoxyphenyl)-2,3-dihydro-1H-imidazo[4,5-c]pyridin-1-yl)piperidine-1-carbonyl)-4-methylpent-2-enenitrile]
3.1 nM | N#CC(=CC1CC1)C(=O)N1CCC[C@@H](n2c(=O)n(-c3ccc(Oc4ccccc4)cc3)c3c(N)nccc32)C1 [Compound 41, (R)-2-(3-(4-amino-2-oxo-3-(4-phenoxyphenyl)-2,3-dihydro-1H-imidazo[4,5-c]pyridin-1-yl)piperidine-1-carbonyl)-3-cyclopropylacrylonitrile]
4.2 nM | CC(C)(C=C(C#N)C(=O)N1CCC[C@@H](n2c(=O)n(-c3ccc(Oc4ccccc4)cc3)c3c(N)nccc32)C1)N1CCC(F)(F)C1 [Compound 58, (R)-2-(3-(4-amino-2-oxo-3-(4-phenoxyphenyl)-2,3-dihydro-1H-imidazo[4,5-c]pyridin-1-yl)piperidine-1-carbonyl)-4-(3,3-difluoropyrrolidin-1-yl)-4-methylpent-2-enenitrile]
2.5 nM | CC(C)(C=C(C#N)C(=O)N1CCC[C@@H](n2c(=O)n(-c3ccc(Oc4ccccc4)cc3)c3c(N)nccc32)C1)N1CCN2C(=O)CC[C@@H]2C1 [Compound 61, 2-((R)-3-(4-amino-2-oxo-3-(4-phenoxyphenyl)-2,3-dihydro-1H-imidazo[4,5-c]pyridin-1-yl)piperidine-1-carbonyl)-4-methyl-4-((R)-6-oxohexahydropyrrolo[1,2-a]pyrazin-2(1H)-yl)pent-2-enenitrile]
4.3 nM | CC1(C=C(C#N)C(=O)N2CCC[C@@H](n3c(=O)n(-c4ccc(Oc5ccccc5)cc4)c4c(N)nccc43)C2)CCOCC1 [Compound 37, (R)-2-(3-(4-amino-2-oxo-3-(4-phenoxyphenyl)-2,3-dihydro-1H-imidazo[4,5-c]pyridin-1-yl)piperidine-1-carbonyl)-3-(4-methyltetrahydro-2H-pyran-4-yl)acrylonitrile]
3.3 nM | CC(=O)N1CCN(C(C)(C)C=C(C#N)C(=O)N2CCC[C@@H](n3c(=O)n(-c4ccc(Oc5ccccc5)cc4)c4c(N)nccc43)C2)CC1 [Compound 44, (R)-4-(4-acetylpiperazin-1-yl)-2-(3-(4-amino-2-oxo-3-(4-phenoxyphenyl)-2,3-dihydro-1H-imidazo[4,5-c]pyridin-1-yl)piperidine-1-carbonyl)-4-methylpent-2-enenitrile]
2.6 nM | CO[C@H]1CCN(C(C)(C)C=C(C#N)C(=O)N2CCC[C@@H](n3c(=O)n(-c4ccc(Oc5ccccc5)cc4)c4c(N)nccc43)C2)C1 [Compound 59, 2-((R)-3-(4-amino-2-oxo-3-(4-phenoxyphenyl)-2,3-dihydro-1H-imidazo[4,5-c]pyridin-1-yl)piperidine-1-carbonyl)-4-((S)-3-methoxypyrrolidin-1-yl)-4-methylpent-2-enenitrile]
14.5 nM | N#CC(=CC1CCSCC1)C(=O)N1CCC[C@@H](n2c(=O)n(-c3ccc(Oc4ccccc4)cc3)c3c(N)nccc32)C1 [Compound 20, (R)-2-(3-(4-amino-2-oxo-3-(4-phenoxyphenyl)-2,3-dihydro-1H-imidazo[4,5-c]pyridin-1-yl)piperidine-1-carbonyl)-3-(tetrahydro-2H-thiopyran-4-yl)acrylonitrile]
3.1 nM | CC(C)(C=C(C#N)C(=O)N1CCC[C@@H](n2c(=O)n(-c3ccc(Oc4ccccc4)cc3)c3c(N)nccc32)C1)N1CCNCC1 [Compound 47, (R)-2-(3-(4-amino-2-oxo-3-(4-phenoxyphenyl)-2,3-dihydro-1H-imidazo[4,5-c]pyridin-1-yl)piperidine-1-carbonyl)-4-methyl-4-(piperazin-1-yl)pent-2-enenitrile]
5.7 nM | CCN1CCN(C(C)(C)C=C(C#N)C(=O)N2CCC[C@@H](n3c(=O)n(-c4ccc(Oc5ccccc5)cc4)c4c(N)nccc43)C2)CC1=O [Compound 40, (R)-2-(3-(4-amino-2-oxo-3-(4-phenoxyphenyl)-2,3-dihydro-1H-imidazo[4,5-c]pyridin-1-yl)piperidine-1-carbonyl)-4-(4-ethyl-3-oxopiperazin-1-yl)-4-methylpent-2-enenitrile]
7.8 nM | C[C@@H]1CN(C(C)(C)C=C(C#N)C(=O)N2CCC[C@@H](n3c(=O)n(-c4ccc(Oc5ccccc5)cc4)c4c(N)nccc43)C2)C[C@H](C)N1 [Compound 19, 2-((R)-3-(4-amino-2-oxo-3-(4-phenoxyphenyl)-2,3-dihydro-1H-imidazo[4,5-c]pyridin-1-yl)piperidine-1-carbonyl)-4-((3R,5S)-3,5-dimethylpiperazin-1-yl)-4-methylpent-2-enenitrile]
1.4 nM | COC[C@@H]1CCCN1C(C)(C)C=C(C#N)C(=O)N1CCC[C@@H](n2c(=O)n(-c3ccc(Oc4ccccc4)cc3)c3c(N)nccc32)C1 [Compound 63, 2-((R)-3-(4-amino-2-oxo-3-(4-phenoxyphenyl)-2,3-dihydro-1H-imidazo[4,5-c]pyridin-1-yl)piperidine-1-carbonyl)-4-((S)-2-(methoxymethyl)pyrrolidin-1-yl)-4-methylpent-2-enenitrile]
12 nM | N#CC(=CC1CC1(F)F)C(=O)N1CCC[C@@H](n2c(=O)n(-c3ccc(Oc4ccccc4)cc3)c3c(N)nccc32)C1 (stereo partly drawn) [Compound 52, (R)-2-(3-(4-amino-2-oxo-3-(4-phenoxyphenyl)-2,3-dihydro-1H-imidazo[4,5-c]pyridin-1-yl)piperidine-1-carbonyl)-3-(2,2-difluorocyclopropyl)acrylonitrile]

Continued, compound first:

Compound | IC50
N#CC(=CC1(c2ccccc2)CC1)C(=O)N1CCC[C@@H](n2c(=O)n(-c3ccc(Oc4ccccc4)cc3)c3c(N)nccc32)C1 [Compound 46, (R)-2-(3-(4-amino-2-oxo-3-(4-phenoxyphenyl)-2,3-dihydro-1H-imidazo[4,5-c]pyridin-1-yl)piperidine-1-carbonyl)-3-(1-phenylcyclopropyl)acrylonitrile] | 13.1 nM
COCC1(C=C(C#N)C(=O)N2CCC[C@@H](n3c(=O)n(-c4ccc(Oc5ccccc5)cc4)c4c(N)nccc43)C2)CCOCC1 [Compound 66, (R)-2-(3-(4-amino-2-oxo-3-(4-phenoxyphenyl)-2,3-dihydro-1H-imidazo[4,5-c]pyridin-1-yl)piperidine-1-carbonyl)-3-(4-(methoxymethyl)tetrahydro-2H-pyran-4-yl)acrylonitrile] | 2 nM
CC(C)(C=C(C#N)C(=O)N1CCC[C@@H](n2c(=O)n(-c3ccc(Oc4c(F)cccc4F)cc3)c3c(N)nccc32)C1)N1CCN(C2COC2)CC1 [Compound 24, (R)-2-(3-(4-amino-3-(4-(2,6-difluorophenoxy)phenyl)-2-oxo-2,3-dihydro-1H-imidazo[4,5-c]pyridin-1-yl)piperidine-1-carbonyl)-4-methyl-4-(4-(oxetan-3-yl)piperazin-1-yl)pent-2-enenitrile] | 4.7 nM
N#CC(=CC(CCO)CCO)C(=O)N1CCC[C@@H](n2c(=O)n(-c3ccc(Oc4ccccc4)cc3)c3c(N)nccc32)C1 [Compound 11, (R)-2-(3-(4-amino-2-oxo-3-(4-phenoxyphenyl)-2,3-dihydro-1H-imidazo[4,5-c]pyridin-1-yl)piperidine-1-carbonyl)-6-hydroxy-4-(2-hydroxyethyl)hex-2-enenitrile] | 78.6 nM
CN1CCN(C(C)(C)C=C(C#N)C(=O)N2CCC[C@H]2Cn2c(=O)n(-c3ccc(Oc4ccccc4)cc3)c3c(N)nccc32)CC1=O [Compound 35, (S)-2-(2-((4-amino-2-oxo-3-(4-phenoxyphenyl)-2,3-dihydro-1H-imidazo[4,5-c]pyridin-1-yl)methyl)pyrrolidine-1-carbonyl)-4-methyl-4-(4-methyl-3-oxopiperazin-1-yl)pent-2-enenitrile] | 26.2 nM
C=CC(=O)N1CCC[C@H]1Cn1c(=O)n(-c2ccc(Oc3ccccc3)cc2)c2c(N)nccc21 [Compound 22, (S)-1-((1-acryloylpyrrolidin-2-yl)methyl)-4-amino-3-(4-phenoxyphenyl)-1H-imidazo[4,5-c]pyridin-2(3H)-one] | 4.8 nM
CC(C)(C=C(C#N)C(=O)N1CCC[C@@H](n2c(=O)n(-c3ccc(Oc4ccccc4)cc3F)c3c(N)nccc32)C1)N1CCN(C2COC2)CC1 [Compound 27, (R)-2-(3-(4-amino-3-(2-fluoro-4-phenoxyphenyl)-2-oxo-2,3-dihydro-1H-imidazo[4,5-c]pyridin-1-yl)piperidine-1-carbonyl)-4-methyl-4-(4-(oxetan-3-yl)piperazin-1-yl)pent-2-enenitrile] | 4.9 nM
CC(C)(C=C(C#N)C(=O)N1CCC[C@@H](n2c(=O)n(-c3ccc(Oc4ccccc4)cc3)c3c(N)nccc32)C1)N1[C@@H]2CC[C@H]1COC2 [Compound 45, 2-((R)-3-(4-amino-2-oxo-3-(4-phenoxyphenyl)-2,3-dihydro-1H-imidazo[4,5-c]pyridin-1-yl)piperidine-1-carbonyl)-4-((1R,5S)-3-oxa-8-azabicyclo[3.2.1]octan-8-yl)-4-methylpent-2-enenitrile] | 25.1 nM
CC(C)(C=C(C#N)C(=O)N1CCC[C@@H](n2c(=O)n(-c3ccc(Oc4ccccc4F)cc3)c3c(N)nccc32)C1)N1CCN(C2COC2)CC1 [Compound 38, (R)-2-(3-(4-amino-3-(4-(2-fluorophenoxy)phenyl)-2-oxo-2,3-dihydro-1H-imidazo[4,5-c]pyridin-1-yl)piperidine-1-carbonyl)-4-methyl-4-(4-(oxetan-3-yl)piperazin-1-yl)pent-2-enenitrile] | 5.7 nM
(R)-2-(3-(4-amino-2-oxo-3-(4-phenoxyphenyl)-2,3-dihydro-1H-imidazo[4,5-c]pyridin-1-yl)piperidine-1-carbonyl)-3-(4-methyl-1-(oxetan-3-yl)piperidin-4-yl)acrylonitrile [Compound 42] | 4.1 nM
